Reference: patent US20260306644A1, “ANTIBODY RECRUITING MOLECULES FOR THE TREATMENT OF CORONAVIRUS DISEASE-19” (priority 2023, published 2026)
Several values for one entry are separate records, joined by “and”; a condition that tells them apart may be missing. Identical values can stand only once. Like-named read-outs stand apart in the source and are kept apart here. Positions of bridges follow the written chain, without caps; N, C: chain ends. No end group written: not given here.

Assays:
SARS-CoV-2 Spike protein = SARS-CoV-2 Spike protein (Severe acute respiratory syndrome coronavirus 2, UniProt P0DTC2); assay: Ternary binding of SARS-CoV-2 Spike protein (293T cells expressing Spike-GFP, IgG-AF647, flow cytometry); format: cell-based; details: 293T cells expressing Spike-GFP; IgG-AF647 10 μg/ml; repeat values/batches listed separately; read-out: SARS-CoV-2 Ternary binding EC50
[1] = target: T1, SARS-CoV-2 Spike A (wild-type) (Severe acute respiratory syndrome coronavirus 2, UniProt P0DTC2); assay: MSD ACE2 competition assay (inhibition of Spike binding with ACE2, ECL), A (wild-type)
T1 construct: purchased Meso Scale Diagnostics, LLC V-PLEX SARS-CoV-2 Panel 13 (ACE2) Kit / Panel 23 (ACE2) Kit

[2] = IC50 Wild Type, Wild Type Spike
[3] = read-out: IC50 Wild Type, Wild Type Spike

`CC[C@H](C)[C@H](NC(=O)[C@H](CC(C)C)NC(=O)[C@H](CC(=O)O)NC(=O)[C@H](CO)NC(=O)[C@@H](NC(=O)[C@H](CCCNC(=N)N)NC(=O)[C@H](CCSC)NC(=O)[C@H](CO)NC(=O)[C@H](C)NC(=O)[C@H](CCC(=O)O)NC(=O)[C@H](C)NC(=O)[C@H](Cc1c[nH]cn1)NC(=O)CNC(=O)[C@H](CC(C)C)NC(=O)[C@H](CCC(=O)O)NC(=O)[C@H](CC(=O)O)NC(=O)[C@H](CC(C)C)NC(=O)[C@H](CC(C)C)NC(=O)[C@H](CCCNC(=N)N)NC(=O)[C@H](CCSC)NC(=O)[C@@H](NC(=O)[C@H](CCC(=O)O)NC(=O)[C@H](Cc1ccc(O)cc1)NC(=O)[C@@H](NC(=O)[C@H](CCCCN)NC(=O)[C@H](CCC(N)=O)NC(=O)[C@H](CC(C)C)NC(=O)[C@@H](NC(=O)[C@H](Cc1c[nH]c2ccccc12)NC(=O)[C@H](CCC(=O)O)NC(=O)[C@H](CCCCN)NC(=O)[C@H](CC(=O)O)NC(C)=O)[C@@H](C)CC)[C@@H](C)CC)[C@@H](C)CC)C(C)C)C(=O)N[C@@H](Cc1ccc(O)cc1)C(=O)N[C@@H](CCC(=O)O)C(=O)N[C@@H](Cc1ccccc1)C(=O)N[C@@H](CCSC)C(=O)N[C@@H](CCCCN)C(=O)N[C@@H](CCCCN)C(=O)NCC(=O)N[C@@H](CC(=O)O)C(=O)N[C@H]1CSSC[C@@H](C(=O)N[C@H](C(=O)O)[C@@H](C)O)NC(=O)[C@H](Cc2c[nH]c3ccccc23)NC(=O)[C@H](C(C)C)NC(=O)[C@H](CC(C)C)NC(=O)[C@H](CCC(=O)O)NC(=O)CNC(=O)[C@H](CC(C)C)NC(=O)[C@H](Cc2c[nH]cn2)NC(=O)[C@H](Cc2c[nH]c3ccccc23)NC(=O)[C@H](C)NC1=O` [Compound 112] was tested, and the EC50 (SARS-CoV-2 Spike protein) was 0.45 nM and 0.55 nM and the IC50 [1, 2] was 40.7 nM.
In the case of `CC[C@H](C)[C@H](NC(=O)[C@H](CC(C)C)NC(=O)[C@H](CC(=O)O)NC(=O)[C@H](CO)NC(=O)[C@@H](NC(=O)[C@H](CCCNC(=N)N)NC(=O)[C@H](CCSC)NC(=O)[C@H](CO)NC(=O)[C@H](C)NC(=O)[C@H](CCC(=O)O)NC(=O)[C@H](C)NC(=O)[C@H](Cc1c[nH]cn1)NC(=O)CNC(=O)[C@H](CC(C)C)NC(=O)[C@H](CCC(=O)O)NC(=O)[C@H](CC(=O)O)NC(=O)[C@H](CC(C)C)NC(=O)[C@H](CC(C)C)NC(=O)[C@H](CCCNC(=N)N)NC(=O)[C@H](CCSC)NC(=O)[C@@H](NC(=O)[C@H](CCC(=O)O)NC(=O)[C@H](Cc1ccc(O)cc1)NC(=O)[C@@H](NC(=O)[C@H](CCCCN)NC(=O)[C@H](CCC(N)=O)NC(=O)[C@H](CC(C)C)NC(=O)[C@@H](NC(=O)[C@H](Cc1c[nH]c2ccccc12)NC(=O)[C@H](CCC(=O)O)NC(=O)[C@H](CCCCN)NC(=O)[C@@H](N)CC(=O)O)[C@@H](C)CC)[C@@H](C)CC)[C@@H](C)CC)C(C)C)C(=O)N[C@@H](Cc1ccc(O)cc1)C(=O)N[C@@H](CCC(=O)O)C(=O)N[C@@H](Cc1ccccc1)C(=O)N[C@@H](CCSC)C(=O)N[C@@H](CCCCN)C(=O)N[C@@H](CCCCN)C(=O)NCC(=O)N[C@@H](CCC(N)=O)C(=O)N[C@@H](C)C(=O)N1CCC[C@H]1C(=O)N[C@@H](CC(=O)O)C(=O)N[C@H]1CSSC[C@@H](C(=O)N[C@H](C(=O)O)[C@@H](C)O)NC(=O)[C@H](Cc2c[nH]c3ccccc23)NC(=O)[C@H](C(C)C)NC(=O)[C@H](CC(C)C)NC(=O)[C@H](CCC(=O)O)NC(=O)CNC(=O)[C@H](CC(C)C)NC(=O)[C@H](Cc2c[nH]cn2)NC(=O)[C@H](Cc2c[nH]c3ccccc23)NC(=O)[C@H](C)NC1=O` [Compound 108], the EC50 (SARS-CoV-2 Spike protein) is reported as 2.7 nM and 1.9 nM and the IC50 [1, 2] is reported as 20.6 nM.
In the case of “Ac-QKIYEIMRLCDELGHAEACMRVSDLIYEFMKKGDCAWHLGELVWCT-NH2 (disulfide 10-19, 35-45) [Compound 164]”, the EC50 (SARS-CoV-2 Spike protein) is reported as > 100 nM and the IC50 [1, 3] is reported as > 10000 nM.
With `CC[C@H](C)[C@H](NC(=O)[C@H](CC(C)C)NC(=O)[C@H](CC(=O)O)NC(=O)[C@H](CO)NC(=O)[C@@H](NC(=O)[C@H](CCCNC(=N)N)NC(=O)[C@H](CCSC)NC(=O)[C@H](CO)NC(=O)[C@H](C)NC(=O)[C@H](CCC(=O)O)NC(=O)[C@H](C)NC(=O)[C@H](Cc1c[nH]cn1)NC(=O)CNC(=O)[C@H](CC(C)C)NC(=O)[C@H](CCC(=O)O)NC(=O)[C@H](CC(=O)O)NC(=O)[C@H](CC(C)C)NC(=O)[C@H](CC(C)C)NC(=O)[C@H](CCCNC(=N)N)NC(=O)[C@H](CCSC)NC(=O)[C@@H](NC(=O)[C@H](CCC(=O)O)NC(=O)[C@H](Cc1ccc(O)cc1)NC(=O)[C@@H](NC(=O)[C@H](CCCCN)NC(=O)[C@H](CCC(N)=O)NC(=O)[C@H](CC(C)C)NC(=O)[C@@H](NC(=O)[C@H](Cc1c[nH]c2ccccc12)NC(=O)[C@H](CCC(=O)O)NC(=O)[C@H](CCCCN)NC(=O)[C@H](CC(=O)O)NC(C)=O)[C@@H](C)CC)[C@@H](C)CC)[C@@H](C)CC)C(C)C)C(=O)N[C@@H](Cc1ccc(O)cc1)C(=O)N[C@@H](CCC(=O)O)C(=O)N[C@@H](Cc1ccccc1)C(=O)N[C@@H](CCSC)C(=O)N[C@@H](CCCCN)C(=O)N[C@@H](CCCCN)C(=O)NCC(=O)NCC(=O)NCC(=O)NCC(=O)N[C@@H](CC(=O)O)C(=O)N[C@H]1CSSC[C@@H](C(=O)N[C@H](C(=O)O)[C@@H](C)O)NC(=O)[C@H](Cc2c[nH]c3ccccc23)NC(=O)[C@H](C(C)C)NC(=O)[C@H](CC(C)C)NC(=O)[C@H](CCC(=O)O)NC(=O)CNC(=O)[C@H](CC(C)C)NC(=O)[C@H](Cc2c[nH]cn2)NC(=O)[C@H](Cc2c[nH]c3ccccc23)NC(=O)[C@H](C)NC1=O` [Compound 107] the EC50 (SARS-CoV-2 Spike protein) was 3.1 nM and 4.5 nM and the IC50 [1, 2] was 36.2 nM.
For “Ac-QKIYEICRLLDELGHAEASMRCSDLIYEFMKKGDCAWHLGELVWCT-NH2 (disulfide 7-22, 35-45) [Compound 140]”, the EC50 (SARS-CoV-2 Spike protein) was > 100 nM and the IC50 [1, 3] was 1560 nM.
For “ILQKIYEIMRLLDELGHAEASMRVSDLIYEFMKKDCAWHLGELVWCT (disulfide 36-46) [Compound 119]”, the EC50 (SARS-CoV-2 Spike protein) was 2.4 nM and 2.9 nM and the IC50 [1, 2] was 46.6 nM and 66.7 nM.
In the case of “Ac-ILQKIYEICRLLDELGHAEASMRCSDLIYEFMKKGDCAWHLGELVWCT-NH2 (disulfide 9-24, 37-47) [Compound 141]”, the EC50 (SARS-CoV-2 Spike protein) is reported as 3.4 nM and 2.1 nM and the IC50 [1, 3] is reported as 25.1 nM and 43.8 nM and 30.1 nM.
For `CC[C@H](C)[C@H](NC(=O)[C@H](CC(C)C)NC(=O)[C@H](CC(=O)O)NC(=O)[C@H](CO)NC(=O)[C@@H](NC(=O)[C@H](CCCNC(=N)N)NC(=O)[C@H](CCSC)NC(=O)[C@H](CO)NC(=O)[C@H](C)NC(=O)[C@H](CCC(=O)O)NC(=O)[C@H](C)NC(=O)[C@H](Cc1c[nH]cn1)NC(=O)CNC(=O)[C@H](CC(C)C)NC(=O)[C@H](CCC(=O)O)NC(=O)[C@H](CC(=O)O)NC(=O)[C@H](CC(C)C)NC(=O)[C@H](CC(C)C)NC(=O)[C@H](CCCNC(=N)N)NC(=O)[C@H](CCSC)NC(=O)[C@@H](NC(=O)[C@H](CCC(=O)O)NC(=O)[C@H](Cc1ccc(O)cc1)NC(=O)[C@@H](NC(=O)[C@H](CCCCN)NC(=O)[C@H](CCC(N)=O)NC(=O)[C@H](CC(C)C)NC(=O)[C@@H](NC(=O)[C@H](Cc1c[nH]c2ccccc12)NC(=O)[C@H](CCC(=O)O)NC(=O)[C@H](CCCCN)NC(=O)[C@H](CC(=O)O)NC(C)=O)[C@@H](C)CC)[C@@H](C)CC)[C@@H](C)CC)C(C)C)C(=O)N[C@@H](Cc1ccc(O)cc1)C(=O)N[C@@H](CCC(=O)O)C(=O)N[C@@H](Cc1ccccc1)C(=O)N[C@@H](CCSC)C(=O)N[C@@H](CCCCN)C(=O)N[C@@H](CCCCN)C(=O)NCC(=O)O` [Compound 103], the EC50 (SARS-CoV-2 Spike protein) was > 10 nM and the IC50 [1, 2] was 6.22 nM.
For `CC[C@H](C)[C@H](NC(=O)[C@H](CC(C)C)NC(=O)[C@H](CC(=O)O)NC(=O)[C@H](CO)NC(=O)[C@@H](NC(=O)[C@H](CCCNC(=N)N)NC(=O)[C@H](CCSC)NC(=O)[C@H](CO)NC(=O)[C@H](C)NC(=O)[C@H](CCC(=O)O)NC(=O)[C@H](C)NC(=O)[C@H](Cc1c[nH]cn1)NC(=O)CNC(=O)[C@H](CC(C)C)NC(=O)[C@H](CCC(=O)O)NC(=O)[C@H](CC(=O)O)NC(=O)[C@H](CC(C)C)NC(=O)[C@H](CC(C)C)NC(=O)[C@H](CCCNC(=N)N)NC(=O)[C@H](CCSC)NC(=O)[C@@H](NC(=O)[C@H](CCC(=O)O)NC(=O)[C@H](Cc1ccc(O)cc1)NC(=O)[C@@H](NC(=O)[C@H](CCCCN)NC(=O)[C@H](CCC(N)=O)NC(=O)[C@H](CC(C)C)NC(=O)[C@@H](NC(=O)[C@H](Cc1c[nH]c2ccccc12)NC(=O)[C@H](CCC(=O)O)NC(=O)[C@H](CCCCN)NC(=O)[C@H](CC(=O)O)NC(C)=O)[C@@H](C)CC)[C@@H](C)CC)[C@@H](C)CC)C(C)C)C(=O)N[C@@H](Cc1ccc(O)cc1)C(=O)N[C@@H](CCC(=O)O)C(=O)N[C@@H](Cc1ccccc1)C(=O)N[C@@H](CCSC)C(=O)N[C@@H](CCCCN)C(=O)N[C@@H](CCCCN)C(=O)NCC(=O)N[C@@H](CCC(N)=O)C(=O)N[C@@H](C)C(=O)N1CCC[C@H]1C(=O)N[C@@H](CC(=O)O)C(=O)N[C@H]1CSSC[C@@H](C(=O)N[C@H](C(=O)O)[C@@H](C)O)NC(=O)[C@H](Cc2c[nH]c3ccccc23)NC(=O)[C@H](C(C)C)NC(=O)[C@H](CC(C)C)NC(=O)[C@H](CCC(=O)O)NC(=O)CNC(=O)[C@H](CC(C)C)NC(=O)[C@H](Cc2c[nH]cn2)NC(=O)[C@H](Cc2c[nH]c3ccccc23)NC(=O)[C@H](C)NC1=O` [Compound 109], the EC50 (SARS-CoV-2 Spike protein) was 1.2 nM and 2.2 nM and the IC50 [1, 2] was 15.9 nM.
